Measurements published in patent US11708348B2, “Protease inhibitors for treatment of coronavirus infections” (The Scripps Research Institute, priority 2021, dated 2023).
Where two headings read alike, the source gives them in different places.

Tested on: SARS-CoV-2 strain USA-WA1/2020
Experiment: microbe, parasite or virus in culture
Assay type: cell-based
Conditions: Severe acute respiratory syndrome coronavirus 2, HeLa-ACE2, 24 h, read-out: EC50, uM (Hela)
[1] = HeLa-ACE2 cells, SARS-CoV-2 infection, 24 h
[2] = HeLa-ACE2 cells, SARS-CoV-2 infection, 24 h, class symbols

CC[C@@H](OC(F)(F)F)C(=O)N1CC2(CC2)C[C@H]1C(=O)N[C@@H](C[C@@H]1CCNC1=O)C(=O)COC(F)(F)F [Compound 716, (S)-N-((S)-3-oxo-1-((S)-2-oxopyrrolidin-3-yl)-4-(trifluoromethoxy)butan-2-yl)-5-((R)-2-(trifluoromethoxy)butanoyl)-5-azaspiro[2.4]heptane-6-carboxamide]
EC50 [1]: 0.05 to 0.2 µM

CC(C)CC[C@H](NC(=O)C(=O)Nc1ccccc1)C(=O)N[C@@H](C[C@@H]1CCNC1=O)C(=O)COc1c(F)c(F)cc(F)c1F [Compound 36, N1-((S)-5-methyl-1-oxo-1-(((S)-3-oxo-1-((S)-2-oxopyrrolidin-3-yl)-4-(2,3,5,6-tetrafluorophenoxy)butan-2-yl)amino)hexan-2-yl)-N2-phenyloxalamide]
EC50 [2]: < 0.05 µM

CC(C)C[C@H](NC(=O)C(=O)NC1CCOCC1)C(=O)N[C@@H](C[C@@H]1CCNC1=O)C(=O)COc1c(F)c(F)cc(F)c1F [Compound 101, N1-((S)-4-methyl-1-oxo-1-(((S)-3-oxo-1-((S)-2-oxopyrrolidin-3-yl)-4-(2,3,5,6-tetrafluorophenoxy)butan-2-yl)amino)pentan-2-yl)-N2-(tetrahydro-2H-pyran-4-yl)oxalamide]
EC50 [2]: 0.05 to 0.2 µM

CC1(NC(=O)C(=O)N[C@@H](Cc2ccc(F)cc2)C(=O)N[C@@H](C[C@@H]2CCNC2=O)C(=O)COC(F)(F)F)CC1 [Compound 250, N1-((S)-3-(4-fluorophenyl)-1-oxo-1-(((S)-3-oxo-1-((S)-2-oxopyrrolidin-3-yl)-4-(trifluoromethoxy)butan-2-yl)amino)propan-2-yl)-N2-(1-methylcyclopropyl)-oxalamide]
EC50 [2]: < 0.05 µM

CC(C)C[C@H](NC(=O)C(=O)NC1(c2ccccc2F)CC1)C(=O)N[C@@H](C[C@@H]1CCNC1=O)C(=O)COC(F)(F)F [Compound 216, Nl-(1-(2-fluorophenyl)-cyclopropyl)-N2-((S)-4-methyl-1-oxo-1-(((S)-3-oxo-1-((S)-2-oxopyrrolidin-3-yl)-4-(trifluoromethoxy)butan-2-yl)amino)pentan-2-yl)oxalamide]
EC50 [2]: < 0.05 µM

CC(C)(C)C[C@H](NC(=O)C(=O)NC12CC(F)(C1)C2)C(=O)N[C@@H](C[C@@H]1CCNC1=O)C(=O)COC(F)(F)F [Compound 226, N1-((S)-4,4-dimethyl-1-oxo-1-(((S)-3-oxo-1-((S)-2-oxopyrrolidin-3-yl)-4-(trifluoromethoxy)butan-2-yl)amino)pentan-2-yl)-N2-(3-fluorobicyclo[1.1.1]-pentan-1-yl)oxalamide]
EC50 [2]: < 0.05 µM

CC(C)C[C@@H](OC(=O)NC(C)(C)C)C(=O)N1CC2(CC2)C[C@H]1C(=O)N[C@@H](C[C@@H]1CCNC1=O)C(=O)COC(F)(F)F [Compound 328, (R)-4-methyl-1-oxo-1-((S)-6-(((S)-3-oxo-1-((S)-2-oxopyrrolidin-3-yl)-4-(trifluoromethoxy)butan-2-yl)carbamoyl)-5-azaspiro[2.4]heptan-5-yl)pentan-2-yl tert-butylcarbamate]
EC50 [2]: < 0.05 µM

Cc1ccc(NC(=O)C(=O)N[C@@H](CC(C)C)C(=O)N[C@@H](C[C@@H]2CCNC2=O)C(=O)COc2c(F)c(F)cc(F)c2F)c(F)c1 [Compound 68, N1-(2-fluoro-4-methylphenyl)-N2-((S)-4-methyl-1-oxo-1-(((S)-3-oxo-1-((S)-2-oxopyrrolidin-3-yl)-4-(2,3,5,6-tetrafluorophenoxy)butan-2-yl)amino)pentan-2-yl)oxalamide]
EC50 [2]: < 0.05 µM

CC(C)(C)C[C@H](NC(=O)C(=O)Nc1ccccc1F)C(=O)N[C@@H](C[C@@H]1CCNC1=O)C(=O)COc1c(F)c(F)cc(F)c1F [Compound 130, N1-((S)-4,4-dimethyl-1-oxo-1-(((S)-3-oxo-1-((S)-2-oxopyrrolidin-3-yl)-4-(2,3,5,6-tetrafluorophenoxy)butan-2-yl)amino)pentan-2-yl)-N2-(2-fluorophenyl)oxalamide]
EC50 [2]: < 0.05 µM

CC(C)C[C@H](NC(=O)C1OCCC1(F)F)C(=O)N[C@@H](C[C@@H]1CCNC1=O)C(=O)COC(F)(F)F (stereo partly drawn) [Compound 324, 3,3-difluoro-N-((S)-4-methyl-1-oxo-1-(((S)-3-oxo-1-((S)-2-oxopyrrolidin-3-yl)-4-(trifluoromethoxy)butan-2-yl)amino)pentan-2-yl)tetrahydrofuran-2-carboxamide]
EC50 [2]: 0.05 to 0.2 µM

CC(C)C[C@H](NC(=O)C(=O)NC1COC1)C(=O)N[C@@H](C[C@@H]1CCNC1=O)C(=O)COC(F)(F)F [Compound 244, N1-((S)-4-methyl-1-oxo-1-(((S)-3-oxo-1-((S)-2-oxopyrrolidin-3-yl)-4-(trifluoromethoxy)butan-2-yl)amino)pentan-2-yl)-N2-(oxetan-3-yl)oxalamide]
EC50 [2]: 0.05 to 0.2 µM

CC(C)C[C@H](NC(=O)C(=O)Nc1ccccc1F)C(=O)N[C@@H](C[C@@H]1CCNC1=O)C(=O)COc1ccnc(C(F)(F)F)n1 [Compound 788, N^1-(2-fluorophenyl)-N^2—((S)-4-methyl-1-oxo-1-(((S)-3-oxo-1-((S)-2-oxopyrrolidin-3-yl)-4-((2-(trifluoromethyl)pyrimidin-4-yl)oxy)butan-2-yl)amino)pentan-2-yl)oxalamide]
EC50 [1]: 0.2 to 0.5 µM

CC(C)C[C@H](NC(=O)C(=O)NCc1ccccc1)C(=O)N[C@@H](C[C@@H]1CCNC1=O)C(=O)COc1c(F)c(F)cc(F)c1F [Compound 42, N1-benzyl-N2-((S)-4-methyl-1-oxo-1-(((S)-3-oxo-1-((S)-2-oxopyrrolidin-3-yl)-4-(2,3,5,6-tetrafluoro-phenoxy)butan-2-yl)amino)pentan-2-yl)oxalamide]
EC50 [2]: 0.05 to 0.2 µM

O=C1NCC[C@H]1C[C@H](NC(=O)[C@@H]1CC2(CC2)CN1C(=O)C(O)c1ccc(F)c(F)c1)C(=O)COC(F)(F)F (stereo partly drawn) [Compound 400, (6S)-5-(2-(3,4-difluorophenyl)-2-hydroxyacetyl)-N-((S)-3-oxo-1-((S)-2-oxopyrrolidin-3-yl)-4-(trifluoromethoxy)butan-2-yl)-5-azaspiro[2.4]heptane-6-carboxamide]
EC50 [2]: 0.05 to 0.2 µM

CC1(C[C@H](NC(=O)C(=O)NC23CC(F)(C2)C3)C(=O)N[C@@H](C[C@@H]2CCNC2=O)C(=O)COC(F)(F)F)CCC1 [Compound 573, N1-(3-fluorobicyclo[1.1.1]pentan-1-yl)-N2-((S)-3-(1-methylcyclobutyl)-1-oxo-1-(((S)-3-oxo-1-((S)-2-oxopyrrolidin-3-yl)-4-(trifluoromethoxy)butan-2-yl)amino)propan-2-yl)oxalamide]
EC50 [1]: < 0.05 µM

CCC(=O)N1CC2(CC2)C[C@H]1C(=O)N[C@@H](C[C@@H]1CCNC1=O)C(=O)COC(F)(F)F [Compound 688, (S)-N-((S)-3-oxo-1-((S)-2-oxopyrrolidin-3-yl)-4-(trifluoromethoxy)butan-2-yl)-5-propionyl-5-azaspiro[2.4]heptane-6-carboxamide]
EC50 [1]: 0.05 to 0.2 µM

CC(C)C[C@@H](OC(=O)Cc1ccccc1)C(=O)N1CC2(CC2)C[C@H]1C(=O)N[C@@H](C[C@@H]1CCNC1=O)C(=O)COC(F)(F)F [Compound 632, (R)-4-methyl-1-oxo-1-((S)-6-(((S)-3-oxo-l-((S)-2-oxopyrrolidin-3-yl)-4-(trifluoromethoxy)butan-2-yl)carbamoyl)-5-azaspiro[2.4]heptan-5-yl)pentan-2-yl 2-phenylacetate]
EC50: < 0.05 µM

Cc1cc(C(=O)N[C@H](C(=O)N[C@@H](CC(C)C)C(=O)N[C@@H](C[C@@H]2CCNC2=O)C(=O)COc2c(F)c(F)cc(F)c2F)C(C)(C)C)no1 [Compound 118, N-((S)-3,3-dimethyl-1-(((S)-4-methyl-1-oxo-1-(((S)-3-oxo-1-((S)-2-oxopyrrolidin-3-yl)-4-(2,3,5,6-tetrafluorophenoxy)butan-2-yl)amino)pentan-2-yl)amino)-1-oxobutan-2-yl)-5-methylisoxazole-3-carboxamide]
EC50 [2]: 0.2 to 0.5 µM

CC(C)C[C@H](NC(=O)c1ccccc1)C(=O)N[C@@H](C[C@@H]1CCNC1=O)C(=O)COc1c(F)c(F)cc(F)c1F [Compound 9, N-((S)-4-methyl-1-oxo-1-(((S)-3-oxo-1-((S)-2-oxopyrrolidin-3-yl)-4-(2,3,5,6-tetrafluorophenoxy)butan-2-yl)amino)pentan-2-yl)benzamide]
EC50 [2]: 0.05 to 0.2 µM

CC1(C)[C@@H]2[C@@H](C(=O)N[C@@H](C[C@@H]3CCCNC3=O)C(=O)COC(F)(F)F)N(C(=O)C(=O)NC3CCCCC3)C[C@@H]21 [Compound 470, (1R,2S,5S)-3-(2-(cyclohexylamino)-2-oxoacetyl)-6,6-dimethyl-N-((S)-3-oxo-1-((S)-2-oxopiperidin-3-yl)-4-(trifluoromethoxy)butan-2-yl)-3-azabicyclo[3.1.0]-hexane-2-carboxamide]
EC50 [1]: < 0.05 µM

O=C1NCC[C@H]1C[C@H](NC(=O)[C@@H]1CC2(CC2)CN1C(=O)C1(O)CC1)C(=O)COC(F)(F)F [Compound 420, (S)-5-(l-hydroxycyclopropane-1-carbonyl)-N-((S)-3-oxo-1-((S)-2-oxopyrrolidin-3-yl)-4-(trifluoromethoxy)butan-2-yl)-5-azaspiro[2.4]heptane-6-carboxamide]
EC50 [1]: 0.05 to 0.2 µM

O=C(Nc1cccc(OC(F)(F)F)c1F)C(=O)N1CC2(CC2)C[C@H]1C(=O)N[C@@H](C[C@@H]1CCNC1=O)C(=O)COC(F)(F)F [Compound 600, (S)-5-(2-((2-fluoro-3-(trifluoromethoxy)-phenyl)amino)-2-oxoacetyl)-N-((S)-3-oxo-1-((S)-2-oxopyrrolidin-3-yl)-4-(trifluoromethoxy)-butan-2-yl)-5-azaspiro[2.4]heptane-6-carboxamide]
EC50 [1]: < 0.05 µM

O=C(NC12CC(F)(C1)C2)C(=O)N[C@]1(C(=O)N[C@@H](C[C@@H]2CCNC2=O)C(=O)COC(F)(F)F)C[C@H]1C1CC1 [Compound 579, N1-(3-fluorobicyclo-[1.1.1]pentan-1-yl)-N2-((1S,2R)-2-(((S)-3-oxo-1-((S)-2-oxopyrrolidin-3-yl)-4-(trifluoromethoxy)butan-2-yl)carbamoyl)-[1,1′-bi(cyclopropan)]-2-yl)oxalamide]
EC50 (HeLa-ACE2 cells, SARS-CoV-2 infection, 24 h, given as bound): > 1 µM
